Test system: p42/44 MAPK
Assay: Western blot of p42/44 MAPK phosphorylation in PAEC
Assay type: cell-based, porcine
Settings: for decrease of p42/44 MAPK phosphorylation induced by 5 min stimulation of 17βE: antagonist 10^−7M 5 min prior to 17βE 10^−8M
Protocol: Confluent PAEC and PSMC were starved for 7 hours in DMEM and antibiotics. Culture medium was removed, and cells were rinsed twice with ice-cold DMEM. PSMC were incubated on ice in DMEM with or without 17βE (10^−8M) for 30 min, incubated at 37° C. for 5, 10, 15 and 30 min, then brought back on ice. Cell were then rinsed with cold DMEM, incubated on ice in DMEM, bovine serum albumin (1 mg/ml), PDGF-BB (10 ng/ml) for 30 min, incubated at 37° C. for 5 min, and then brought back on ice. […] […] Total proteins were prepared by the addition of 500 μl of lysis buffer containing phenylmethylsulfonyl fluoride 1 mM, leupeptin 10 μg/ml, aprotinin 30 μg/ml, and NaVO3 1 mM (Sigma). Plates were incubated at 4° C. for 30 min and scraped, and the protein concentration was determined with a Bio-Rad protein kit (Bio-Rad, Hercules, Calif.). Same protein quantity for each cell type and condition were dissolved in Laemmli's buffer, boiled for 5 min in reducing conditions, separated by a 10% gradient SDS-PAGE (Protean II kit; Bio-Rad), and transblotted onto a 0.45-μm polyvinylidene difluoride membranes (Millipore Corp., Bedford, Mass.). The membranes were blocked in 5% Blotto-TTBS (5% nonfat dry milk; Bio-Rad), 0.05% Tween 20, 0.15 M NaCl, 25 mM Tris-HCl, pH 7.5) for 1 h at room temperature with gentle agitation and incubated overnight at 4° C. in 0.5% Blotto-TTBS with the addition of an anti-phospho p42/44 MAPK or an anti-phospho p38 MAPK rabbit polyclonal antiserums (α-pp42/44; dilution of 1:10 000, and α-pp38; dilution 1:5000, New England BioLabs, Beverly, Mass.). Membranes were washed with TTBS, and incubated at room temperature with an anti-rabbit IgG antibody coupled to horseradish peroxidase (dilution 1:10 000–1:20 000, Santa Cruz Biotechnology, Santa Cruz, Calif.) in 0.5% Blotto-TTBS for 30 min. […] Kaleidoscope molecular weight and SDS-plyacrylamide gel electrophoresis broad range marker proteins (Bio-Rad) were used as standards for SDS-plyacrylamide gel electrophoresis. Digital image densitometry (PDI Bioscience, Aurora, ON) was performed on x-ray film to determine relative percentages of p42/44 and p38 MAPK phosphorylation.
Confluent PAEC and PSMC were preteated with or without antisense sequences as described above for Western Blot analysis. Cells were rinsed twice with ice-cold DMEM. PSMC and PAEC were stimulated with or without 17βE (10^−8 mol/L) as previously described (Geraldes P). Briefly, PSMC were incubated on ice in DMEM with or without 17βE (10^−8 mol/L) for 30 minutes, incubated at 37° C. for 30 minutes, then brought back on ice. Cells were then rinsed with cold DMEM, incubated on ice in DMEM, bovine serum albumin (1 mg/mL), PDGF-BB (10 ng/mL) for 30 minutes, incubated at 37° C. for 5 and 30 minutes, and then brought back on ice. PAEC were incubated on ice in DMEM with or without 17βE (10^−8 mol/L) for 30 minutes, then incubated at 37° C. for 5 and 30 minutes and brought back on ice. Total proteins were prepared-by the addition of 500 μL of lysis buffer, incubated at 4° C. for 30 minutes and scraped to collect the proteins. Same quantity of protein was separated by a 10% gradient SDS-PAGE (Protean II kit; Bio-Rad), and transblotted onto a 0.45-μm polyvinylidene difluoride membranes (Millipore Corp.). The membranes were blocked for 1 hour at room temperature with gentle agitation and incubated overnight at 4° C. in 0.5% Blotto-TTBS with the addition of an antiphospho p42/44 MAPK or an antiphospho p38 MAPK rabbit polyclonal antiserums (α-pp42/44; dilution of 1:10000, and α-pp38; dilution 1:5 000, New England BioLabs, Beverly, Mass.). Membranes were washed with TTBS, and incubated at room temperature with an anti-rabbit IgG antibody coupled to horseradish peroxidase (dilution 1:10 000–1:20 000, Santa Cruz Biotechnology) in 0.5% Blotto-TTBS for 30 minutes. […] Digital image densitometry (PDI Bioscience) was performed on X-ray film to determine relative phosphorylation of p42/44 and p38 MAPK. […]

## O=C(c1ccc(OCN2CCCCC2)cc1)c1c(-c2ccc(O)cc2)sc2cc(O)ccc12 [Ral, Raloxifen]
  decrease of p42/44 MAPK phosphorylation induced by 5 min stimulation of 17βE: 66%

## CC/C(=C(\c1ccccc1)c1ccc(OCCN(C)C)cc1)c1ccccc1 [Tam, Tamoxifen]
  decrease of p42/44 MAPK phosphorylation induced by 5 min stimulation of 17βE: 36%

## CC/C(=C(\c1ccc(O)cc1)c1ccc(OCCN(C)C)cc1)c1ccccc1 [4-OHT, 4-OH-Tamoxifen]
  decrease of p42/44 MAPK phosphorylation induced by 5 min stimulation of 17βE: 44%

## C[C@]12CC[C@@H]3c4ccc(O)cc4CC[C@H]3[C@@H]1CC[C@@H]2O [17βE, 17-beta-estradiol]
17βE 10^−8M, 5 minutes, Example 1
  increase of p42/44 MAPK phosphorylation: 1122%
17βE 10^−8M, 10 minutes
  increase of p42/44 MAPK phosphorylation: 1074%
17βE 10^−8M, 15 minutes
  increase of p42/44 MAPK phosphorylation: 1420%
17βE 10^−8M, 30 minutes
  increase of p42/44 MAPK phosphorylation: 1835%
17βE 10^−8 mol/L, 5 minutes, Example 2
  increase of p42/44 MAPK phosphorylation: 329%

Reference: patent US7235534B2, “Antisense strategy to modulate estrogen receptor response (ER α and/or ER β )” (Institut de Cardiologie de Montreal, priority 2001, dated 2007)
